Measurements as given in the supplement of paper PMC11061612.

What was measured:
[1] = tested on: RC-K8 (B-Cell Non-Hodgkin's Lymphoma); assay: Bliss excess, mean over the matrix (fraction); higher = more synergy
Summary of the method: (§1)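 Cell lines in DMEM/F12 or RPMI with 10% FBS were plated in 1536-well plates, held 24 hours at 37°C, 5% CO2, then given two-drug dose matrices for 72 hours (DMSO typically 0.2%). Viability was read by CellTiter-Glo 2.0 luminescence and scaled as inhibition from 0 (vehicle wells) to 1 (blank wells). Combination Emax is the second-highest inhibition in the matrix; Bliss excess is observed combination effect minus expected EA + EB − EA·EB, EA and EB being single-agent effects.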

[2] = tested on: NCI-H2085 (Non-Small Cell Lung Carcinoma); assay: as above
Summary of the method: as §1

[3] = tested on: CCRF-CEM (T-Lymphoblastic Leukemia); assay: as above
Summary of the method: as §1

[4] = tested on: RO82-W-1 (Thyroid Gland Carcinoma); assay: as above
Summary of the method: as §1

HOS (Osteosarcoma) [5] = assay: as above
Summary of the method: as §1

NOS-1 (Osteosarcoma) = assay: as above
Summary of the method: as §1

[6] = tested on: NCI-H2085 (Non-Small Cell Lung Carcinoma); assay: combination Emax (second highest fraction inhibited in the dose matrix, 72 h); higher = more inhibition; extreme values may be limits of the assay
Summary of the method: as §1

42-MG-BA (Glioblastoma) = assay: as above
Summary of the method: as §1

[7] = tested on: HuP-T4 (Pancreatic Carcinoma); assay: as above
Summary of the method: as §1

[8] = tested on: LU-135 (Small Cell Lung Carcinoma); assay: as above
Summary of the method: as §1

[9] = tested on: LNCaP-Clone-FGC (Prostate Carcinoma); assay: as above
Summary of the method: as §1

HOS (Osteosarcoma) [10] = assay: as above
Summary of the method: as §1

KELLY (Neuroblastoma) = assay: as above
Summary of the method: as §1

[11] = tested on: ME-1 (Acute Myeloid Leukemia); assay: as above
Summary of the method: as §1

AGS (Gastric Carcinoma) = assay: as above
Summary of the method: as §1

[12] = tested on: OVCA420 (Ovarian Carcinoma); assay: as above
Summary of the method: as §1

[13] = tested on: LB831-BLC (Bladder Carcinoma); assay: as above
Summary of the method: as §1

[14] = tested on: HO-1-N-1 (Oral Cavity Carcinoma); assay: as above
Summary of the method: as §1

[15] = tested on: HT-1376 (Bladder Carcinoma); assay: as above
Summary of the method: as §1

[16] = tested on: KYSE-520 (Esophageal Squamous Cell Carcinoma); assay: as above
Summary of the method: as §1
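Wherever Bliss excess, mean over the matrix is given: after 72 h of two-drug dosing.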

Cc1c2c(nn1C)CSCc1cc(n(C)n1)CSc1cc(c3ccccc3c1)OCCCc1c(C(=O)O)n(C)c3c-2c(Cl)ccc13 [AZD5991] + C1CN(CCC1(C(=O)N[C@@H](CCO)C2=CC=C(C=C2)Cl)N)C3=NC=NC4=C3C=CN4 [Capivasertib] (first compound max 1 µM, 7x7, partner max 3 µM)
Bliss excess [1]: -0.03
Bliss excess [2]: -0.0334
Bliss excess [3]: 0.0618
Bliss excess [4]: -0.016
Bliss excess (HOS (Osteosarcoma) [5]): -0.0083
Bliss excess (NOS-1 (Osteosarcoma)): 0.0511
combination Emax [6]: 0.262
combination Emax (42-MG-BA (Glioblastoma)): 1
combination Emax [7]: 0.351
combination Emax [8]: 0.323
combination Emax [9]: 0.997
combination Emax (HOS (Osteosarcoma) [10]): 0.242
combination Emax (KELLY (Neuroblastoma)): 0.676
combination Emax [11]: 0.772
combination Emax (AGS (Gastric Carcinoma)): 0.335
combination Emax [12]: 0.212
combination Emax [13]: 0.352
combination Emax [14]: 0.944
combination Emax [15]: 0.146
combination Emax [16]: 0.433

C[C@@H](c1ccc2nccn2c1)n1nnc2ncc(-c3cnn(C)c3)nc21 [Savolitinib] + CC1(C)CCC(CN2CCN(c3ccc(C(=O)NS(=O)(=O)c4ccc(NCC5CCOCC5)c([N+](=O)[O-])c4)c(Oc4cnc5[nH]ccc5c4)c3)CC2)=C(c2ccc(Cl)cc2)C1 [Venetoclax] (first compound max 1 µM, 7x7, partner max 1 µM)
Bliss excess [1]: -0.0489
Bliss excess [2]: -0.0364
Bliss excess [3]: -0.0527
Bliss excess [4]: -0.0371
Bliss excess (HOS (Osteosarcoma) [5]): -0.0243
Bliss excess (NOS-1 (Osteosarcoma)): -0.05
combination Emax [6]: 0.107
combination Emax (42-MG-BA (Glioblastoma)): 0.166
combination Emax [7]: 0.0793
combination Emax [8]: 0.114
combination Emax [9]: 0.0523
combination Emax (HOS (Osteosarcoma) [10]): 0.205
combination Emax (KELLY (Neuroblastoma)): 0.357
combination Emax [11]: 1
combination Emax (AGS (Gastric Carcinoma)): 0.0926
combination Emax [12]: 0.0542
combination Emax [13]: 0.179
combination Emax [14]: 0.158
combination Emax [15]: 0.103
combination Emax [16]: 0.149

COc1cc2ncnc(Nc3ccc(F)c(Cl)c3)c2cc1OCCCN1CCOCC1 [Gefitinib] + CC(C)n1c(=O)n(C)c2cnc3cc(F)c(-c4ccc(OCCCN5CCCCC5)nc4)cc3c21 [AZD1390] (first compound max 10 µM, 7x7, partner max 0.3 µM)
Bliss excess [1]: -0.0473
Bliss excess [2]: -0.0515
Bliss excess [3]: -0.0419
Bliss excess [4]: -0.0586
Bliss excess (HOS (Osteosarcoma) [5]): -0.0491
Bliss excess (NOS-1 (Osteosarcoma)): -0.063
combination Emax [6]: 0.225
combination Emax (42-MG-BA (Glioblastoma)): 0.32
combination Emax [7]: 0.178
combination Emax [8]: 0.129
combination Emax [9]: 0.089
combination Emax (HOS (Osteosarcoma) [10]): 0.0904
combination Emax (KELLY (Neuroblastoma)): 0.189
combination Emax [11]: 0.199
combination Emax (AGS (Gastric Carcinoma)): 0.133
combination Emax [12]: 0.646
combination Emax [13]: 0.202
combination Emax [14]: 0.568
combination Emax [15]: 0.177
combination Emax [16]: 0.556

NC1(C(=O)N[C@@H](CCO)c2ccc(Cl)cc2)CCN(c2ncnc3[nH]ccc23)CC1 [Capivasertib] + CC(=O)c1c(C)c2cnc(Nc3ccc(N4CCNCC4)cn3)nc2n(C2CCCC2)c1=O [Palbociclib] (first compound max 10 µM, 7x7, partner max 10 µM)
Bliss excess [1]: -0.0014
Bliss excess [2]: -0.0561
Bliss excess [3]: 0.0861
Bliss excess [4]: -0.0125
Bliss excess (HOS (Osteosarcoma) [5]): 0.0023
Bliss excess (NOS-1 (Osteosarcoma)): -0.0389
combination Emax [6]: 0.295
combination Emax (42-MG-BA (Glioblastoma)): 0.639
combination Emax [7]: 0.305
combination Emax [8]: 0.452
combination Emax [9]: 0.945
combination Emax (HOS (Osteosarcoma) [10]): 0.504
combination Emax (KELLY (Neuroblastoma)): 0.522
combination Emax [11]: 0.257
combination Emax (AGS (Gastric Carcinoma)): 0.697
combination Emax [12]: 0.412
combination Emax [13]: 0.453
combination Emax [14]: 0.635
combination Emax [15]: 0.144
combination Emax [16]: 0.638

COc1nnc2ccc(N3CCC(c4ccc(OCCN5CCN(C)C(=O)[C@H]5C)cc4)CC3)nn12 [AZD5153] + Cc1c2c(nn1C)CSCc1cc(n(C)n1)CSc1cc(c3ccccc3c1)OCCCc1c(C(=O)O)n(C)c3c-2c(Cl)ccc13 [AZD5991] (first compound max 1 µM, 7x7, partner max 1 µM)
Bliss excess [1]: -0.0446
Bliss excess [2]: -0.0081
Bliss excess [3]: -0.0035
Bliss excess [4]: -0.0181
Bliss excess (HOS (Osteosarcoma) [5]): 0.0009
Bliss excess (NOS-1 (Osteosarcoma)): 0.0399
combination Emax [6]: 0.64
combination Emax (42-MG-BA (Glioblastoma)): 0.883
combination Emax [7]: 0.606
combination Emax [8]: 0.994
combination Emax [9]: 0.772
combination Emax (HOS (Osteosarcoma) [10]): 0.879
combination Emax (KELLY (Neuroblastoma)): 0.993
combination Emax [11]: 0.793
combination Emax (AGS (Gastric Carcinoma)): 0.851
combination Emax [12]: 0.771
combination Emax [13]: 0.587
combination Emax [14]: 0.991
combination Emax [15]: 0.264
combination Emax [16]: 0.585

Cc1c2c(nn1C)CSCc1cc(n(C)n1)CSc1cc(c3ccccc3c1)OCCCc1c(C(=O)O)n(C)c3c-2c(Cl)ccc13 [AZD5991] + CC1(C)CCC(CN2CCN(c3ccc(C(=O)NS(=O)(=O)c4ccc(NCC5CCOCC5)c([N+](=O)[O-])c4)c(Oc4cnc5[nH]ccc5c4)c3)CC2)=C(c2ccc(Cl)cc2)C1 [Venetoclax] (first compound max 1 µM, 7x7, partner max 1 µM)
Bliss excess [1]: -0.0142
Bliss excess [2]: -0.0042
Bliss excess [3]: 0.0935
Bliss excess [4]: -0.0523
Bliss excess (HOS (Osteosarcoma) [5]): 0.0413
Bliss excess (NOS-1 (Osteosarcoma)): 0.0241
combination Emax [6]: 0.783
combination Emax (42-MG-BA (Glioblastoma)): 0.963
combination Emax [7]: 0.409
combination Emax [8]: 0.478
combination Emax [9]: 0.228
combination Emax (HOS (Osteosarcoma) [10]): 0.509
combination Emax (KELLY (Neuroblastoma)): 0.999
combination Emax [11]: 1
combination Emax (AGS (Gastric Carcinoma)): 0.665
combination Emax [12]: 0.187
combination Emax [13]: 0.439
combination Emax [14]: 0.979
combination Emax [15]: 0.142
combination Emax [16]: 0.183
